Reference: patent US12448389B2, “BRM targeting compounds and associated methods of use” (Prelude Therapeutics Incorporated, priority 2020, dated 2025)

Tests used:
[1] = biological target: T1, SMARCA4-HiBiT (Homo sapiens, UniProt P51532); test: SMARCA4 HiBiT degradation assay in HeLa cells; format: cell-based; conditions: 18 hours incubation; for DC50: read-out: HeLa-HiBit-SM4 DC50; for Dmax: HeLa, read-out: HeLa-HiBit-SM4 Dmax (%)
T1 construct: SMARCA4-HiBiT knock-in Hela monoclonal cell (CS3023226); host or cells: HeLa monoclonal knock-in line (CRISPR HiBiT knock-in at the endogenous locus, heterozygous)
T1 sequence (P51532 whole entry): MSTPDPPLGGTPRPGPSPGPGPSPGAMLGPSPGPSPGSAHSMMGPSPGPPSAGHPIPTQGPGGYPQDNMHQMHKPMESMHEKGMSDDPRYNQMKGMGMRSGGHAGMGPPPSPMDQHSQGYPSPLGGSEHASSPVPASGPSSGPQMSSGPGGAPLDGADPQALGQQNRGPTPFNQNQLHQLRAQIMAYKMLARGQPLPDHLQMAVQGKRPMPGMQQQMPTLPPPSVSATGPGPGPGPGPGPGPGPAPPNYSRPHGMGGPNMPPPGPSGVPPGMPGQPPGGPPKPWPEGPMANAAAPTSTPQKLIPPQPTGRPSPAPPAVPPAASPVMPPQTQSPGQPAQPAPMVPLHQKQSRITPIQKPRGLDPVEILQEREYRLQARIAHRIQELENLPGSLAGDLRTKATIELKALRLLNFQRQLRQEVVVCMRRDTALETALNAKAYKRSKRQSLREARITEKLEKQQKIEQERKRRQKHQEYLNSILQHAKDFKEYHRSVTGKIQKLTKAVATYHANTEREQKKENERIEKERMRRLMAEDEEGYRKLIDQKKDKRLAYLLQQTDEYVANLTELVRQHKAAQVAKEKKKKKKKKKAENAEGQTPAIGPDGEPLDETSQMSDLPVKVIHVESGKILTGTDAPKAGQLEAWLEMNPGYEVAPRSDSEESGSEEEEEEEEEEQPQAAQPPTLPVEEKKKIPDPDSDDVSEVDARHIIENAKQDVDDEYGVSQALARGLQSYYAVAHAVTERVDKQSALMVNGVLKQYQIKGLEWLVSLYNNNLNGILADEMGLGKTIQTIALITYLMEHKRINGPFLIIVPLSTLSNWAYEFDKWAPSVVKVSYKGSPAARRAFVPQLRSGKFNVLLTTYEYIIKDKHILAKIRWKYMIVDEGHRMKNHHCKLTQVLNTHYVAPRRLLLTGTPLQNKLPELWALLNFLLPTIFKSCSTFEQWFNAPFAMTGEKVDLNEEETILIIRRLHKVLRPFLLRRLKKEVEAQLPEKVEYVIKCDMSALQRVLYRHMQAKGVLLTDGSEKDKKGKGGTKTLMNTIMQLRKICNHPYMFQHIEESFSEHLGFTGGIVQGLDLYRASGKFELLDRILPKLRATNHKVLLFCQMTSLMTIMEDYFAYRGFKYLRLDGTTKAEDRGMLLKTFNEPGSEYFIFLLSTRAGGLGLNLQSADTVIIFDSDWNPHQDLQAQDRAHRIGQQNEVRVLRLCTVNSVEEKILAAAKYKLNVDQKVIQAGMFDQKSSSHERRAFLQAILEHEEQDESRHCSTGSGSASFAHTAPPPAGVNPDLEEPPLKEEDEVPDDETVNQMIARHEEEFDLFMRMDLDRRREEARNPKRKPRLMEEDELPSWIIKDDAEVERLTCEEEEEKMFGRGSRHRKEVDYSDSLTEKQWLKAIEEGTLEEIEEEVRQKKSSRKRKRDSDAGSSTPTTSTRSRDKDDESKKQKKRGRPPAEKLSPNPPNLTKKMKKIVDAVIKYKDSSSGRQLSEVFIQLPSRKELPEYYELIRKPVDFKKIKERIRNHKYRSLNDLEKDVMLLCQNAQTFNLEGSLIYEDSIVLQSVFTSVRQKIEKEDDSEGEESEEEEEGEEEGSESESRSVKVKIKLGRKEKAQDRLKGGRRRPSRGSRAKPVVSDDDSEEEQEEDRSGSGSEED
In short: (§1)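 HeLa monoclonal lines with heterozygous HiBiT knock-in were seeded at 2500 cells/well in EMEM with 10% FBS and treated with compound for 18 h at 37 °C. Remaining tagged protein was measured by Nano-Glo HiBiT lytic luminescence after 30–60 min at RT, and values came from curve fitting.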

[2] = biological target: T2, SMARCA2-HiBiT (Homo sapiens, UniProt P51531); test: SMARCA2 HiBiT degradation assay in HeLa cells; format: cell-based; conditions: 18 hours incubation; for DC50: read-out: HeLa_HiBit-SM2 DC50; for Dmax: HeLa, read-out: HeLa-HiBit-SM2 Dmax (%)
T2 construct: SMARCA2-HiBiT knock-in Hela monoclonal cell (CS302366); host or cells: HeLa monoclonal knock-in line (CRISPR HiBiT knock-in at the endogenous locus, heterozygous)
T2 sequence (P51531 whole entry): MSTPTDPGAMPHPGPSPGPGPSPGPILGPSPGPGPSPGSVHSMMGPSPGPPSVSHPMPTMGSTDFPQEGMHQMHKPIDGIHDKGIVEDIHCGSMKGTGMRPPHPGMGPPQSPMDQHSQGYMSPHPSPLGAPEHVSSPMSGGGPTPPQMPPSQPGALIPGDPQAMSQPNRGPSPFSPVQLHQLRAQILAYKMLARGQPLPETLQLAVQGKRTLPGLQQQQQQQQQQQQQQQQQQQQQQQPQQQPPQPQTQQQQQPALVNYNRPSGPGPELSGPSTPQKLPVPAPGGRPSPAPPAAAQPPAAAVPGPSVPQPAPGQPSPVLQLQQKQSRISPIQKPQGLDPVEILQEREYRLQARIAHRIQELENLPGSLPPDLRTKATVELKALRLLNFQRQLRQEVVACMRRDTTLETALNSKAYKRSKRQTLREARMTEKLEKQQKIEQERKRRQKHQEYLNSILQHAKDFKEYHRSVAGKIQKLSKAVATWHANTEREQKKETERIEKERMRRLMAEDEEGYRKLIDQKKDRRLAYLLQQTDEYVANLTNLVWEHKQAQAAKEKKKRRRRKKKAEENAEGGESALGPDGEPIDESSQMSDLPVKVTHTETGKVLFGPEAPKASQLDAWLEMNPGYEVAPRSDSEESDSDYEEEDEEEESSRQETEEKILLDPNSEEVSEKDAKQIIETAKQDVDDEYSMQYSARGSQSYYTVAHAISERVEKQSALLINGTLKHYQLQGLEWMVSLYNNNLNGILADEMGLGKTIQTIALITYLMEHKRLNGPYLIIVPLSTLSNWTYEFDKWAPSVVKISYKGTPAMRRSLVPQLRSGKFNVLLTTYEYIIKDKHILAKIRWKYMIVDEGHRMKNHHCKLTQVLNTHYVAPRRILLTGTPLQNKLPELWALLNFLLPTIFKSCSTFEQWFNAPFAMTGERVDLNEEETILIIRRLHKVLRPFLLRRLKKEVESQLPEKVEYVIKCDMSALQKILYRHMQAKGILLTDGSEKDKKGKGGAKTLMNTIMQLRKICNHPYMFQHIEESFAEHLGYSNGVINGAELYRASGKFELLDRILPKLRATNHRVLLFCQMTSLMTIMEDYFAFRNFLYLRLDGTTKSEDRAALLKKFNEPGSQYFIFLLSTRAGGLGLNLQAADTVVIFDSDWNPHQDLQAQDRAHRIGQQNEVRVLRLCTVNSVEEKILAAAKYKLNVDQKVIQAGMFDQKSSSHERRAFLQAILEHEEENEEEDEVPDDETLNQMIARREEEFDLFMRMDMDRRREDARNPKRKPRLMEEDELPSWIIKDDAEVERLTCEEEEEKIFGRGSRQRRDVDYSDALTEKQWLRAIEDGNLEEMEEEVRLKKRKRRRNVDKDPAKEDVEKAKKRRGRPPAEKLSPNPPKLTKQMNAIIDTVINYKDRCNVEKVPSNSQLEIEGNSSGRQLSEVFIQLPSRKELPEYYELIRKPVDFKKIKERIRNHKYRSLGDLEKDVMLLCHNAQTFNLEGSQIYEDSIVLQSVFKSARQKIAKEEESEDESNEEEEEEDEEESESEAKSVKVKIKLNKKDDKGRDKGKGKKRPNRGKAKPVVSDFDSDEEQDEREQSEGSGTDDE
In short: as §1

Row | SMILES | DC50 [1] [nM] | Dmax [1] [%] | DC50 [2] [nM] | Dmax [2] [%] | HeLa-HiBit-SM4 Dmax (%) [1]
1 | O=C1CCC(N2Cc3ccc(N4CCC(CN5CCC(CN6CCN7c8cc(-c9ccccc9O)nnc8NC[C@H]7C6)CC5CO)CC4)cc3C2=O)C(=O)N1 (stereo partly drawn) [Example 235, 3-(6-(4-((2-(hydroxymethyl)-4-(((S)-2-(2-hydroxyphenyl)-5,6,6a,7,9,10-hexahydro-8H-pyrazino[1′,2′:4,5]pyrazino[2,3-c]pyridazin-8-yl)methyl)piperidin-1-yl)methyl)piperidin-1-yl)-1-oxoisoindolin-2-yl)piperidine-2,6-dione] | < 10 | > 85 | < 10 | > 85 | 
2 | COC1(CN2C[C@@H]3[C@@H](CN4CCN5c6cc(-c7ccccc7O)nnc6NC[C@H]5C4)[C@@H]3C2)CCN(c2ccc3c(c2)C(=O)N(C2CCC(=O)NC2=O)C3)CC1 (stereo partly drawn) [Example 252, 3-(6-(4-(((1R,5S,6s)-6-(((S)-2-(2-hydroxyphenyl)-5,6,6a,7,9,10-hexahydro-8H-pyrazino[1′,2′:4,5]pyrazino[2,3-c]pyridazin-8-yl)methyl)-3-azabicyclo[3.1.0]hexan-3-yl)methyl)-4-methoxypiperidin-1-yl)-1-oxoisoindolin-2-yl)piperidine-2,6-dione] | < 10 | > 85 | < 10 | > 85 | 
3 | O=C1CCC(N2Cc3cc(CN4CCC(N5CCC(N6CCN7c8cc(-c9ccccc9O)nnc8NC[C@H]7C6)CC5)CC4)ccc3C2=O)C(=O)N1 (stereo partly drawn) [Example 63, 3-(5-((4-((S)-2-(2-hydroxyphenyl)-5,6,6a,7,9,10-hexahydro-8H-pyrazino[1′,2′:4,5]pyrazino[2,3-c]pyridazin-8-yl)-[1,4′-bipiperidin]-1′-yl)methyl)-1-oxoisoindolin-2-yl)piperidine-2,6-dione] | < 10 | > 85 | < 10 | > 85 | 
4 | O=C1CCC(N2C(=O)c3ccc(N4C[C@H]5CC(N6CCC(CN7CCN8c9cc(-c%10ccccc%10O)nnc9NC[C@H]8C7)CC6)[C@H]5C4)cc3C2=O)C(=O)N1 (stereo partly drawn) [Example 190, 2-(2,6-dioxopiperidin-3-yl)-5-[(1S,5R)-6-[4-[[(10S)-4-(2-hydroxyphenyl)-1,5,6,8,12-pentazatricyclo[8.4.0.02,7]tetradeca-2(7),3,5-trien-12-yl]methyl]piperidin-1-yl]-3-azabicyclo[3.2.0]heptan-3-yl]isoindole-1,3-dione] | < 10 | 75 to 85 | < 10 | 75 to 85 | 
5 | O=C1CCC(N2C(=O)c3ccc(N4CC5CCC(C4)C5CN4C[C@@H]5[C@H](C4)[C@H]5CN4CCN5c6cc(-c7ccccc7O)nnc6NC[C@H]5C4)cc3C2=O)C(=O)N1 (stereo partly drawn) [Example 53, 2-(2,6-dioxopiperidin-3-yl)-5-(8-(((1R,5S,6r)-6-(((S)-2-(2-hydroxyphenyl)-5,6,6a,7,9,10-hexahydro-8H-pyrazino [1′,2′:4,5]pyrazino[2,3-c]pyridazin-8-yl)methyl)-3-azabicyclo [3.1,0]hexan-3-yl)methyl)-3-azabicyclo[3.2.1]octan-3-yl)isoindoline-1,3-dione] | < 10 | 50 to 75 | < 10 | 75 to 85 | 
6 | NC1(C(=O)OCN2C(=O)CCC(N3C(=O)c4ccc(N5CCC(CN6CCC(CN7CCN8c9cc(-c%10ccccc%10O)nnc9NC[C@H]8C7)CC6)CC5)cc4C3=O)C2=O)CC1 (stereo partly drawn) [Example 131, (3-(5-(4-((4-(((S)-2-(2-hydroxyphenyl)-5,6,6a,7,9,10-hexahydro-8H-pyrazino[1′,2′:4,5]pyrazino[2,3-c]pyridazin-8-yl)methyl)piperidin-1-yl)methyl)piperidin-1-yl)-1,3-dioxoisoindolin-2-yl)-2,6-dioxopiperidin-1-yl)methyl 1-aminocyclopropane-1-carboxylate] | < 10 | > 85 | < 10 | > 85 | 
7 | O=C1CCC(N2Cc3cc(C4CCN(C5CCN(CCCN6CCN7c8cc(-c9ccccc9O)nnc8NC[C@H]7C6)C5)CC4)ccc3C2=O)C(=O)N1 (stereo partly drawn) [Example 208, 3-(5-(1-(1-(3-((S)-2-(2-hydroxyphenyl)-5,6,6a,7,9,10-hexahydro-8H-pyrazino[1′,2′:4,5]pyrazino[2,3-c]pyridazin-8-yl)propyl)pyrrolidin-3-yl)piperidin-4-yl)-1-oxoisoindolin-2-yl)piperidine-2,6-dione] | < 10 | 50 to 75 | < 10 | 75 to 85 | 
8 | O=C1CCC(N2C(=O)c3ccc(N4CCO[C@H](CN5C[C@@H]6[C@H](C5)[C@H]6CN5CCN6c7cc(-c8ccccc8O)nnc7NC[C@H]6C5)C4)cc3C2=O)C(=O)N1 (stereo partly drawn) [Example 52, 2-(2,6-dioxopiperidin-3-yl)-5-((R)-2-(((1R,5S,6S)-6-(((S)-2-(2-hydroxyphenyl)-5,6,6a,7,9,10-hexahydro-8H-pyrazino[1′,2′:4,5]pyrazino[2,3-c]pyridazin-8-yl)methyl)-3-azabicyclo[3.1.0]hexan-3-yl)methyl)morpholino)isoindoline-1,3-dione] | < 10 | 75 to 85 | < 10 | > 85 | 
9 | CC1(C)CN(CC2CCN(c3ccc4c(c3)C(=O)N(C3CCC(=O)NC3=O)C4)CC2)CCN1C(=O)N1CCN2c3cc(-c4ccccc4O)nnc3NC[C@H]2C1 (stereo partly drawn) [Example 105, 3-(6-(4-((4-((S)-2-(2-hydroxyphenyl)-6,6a,7,8,9,10-hexahydro-5H-pyrazino[1′,2′:4,5]pyrazino[2,3-c]pyridazine-8-carbonyl)-3,3-dimethylpiperazin-1-yl)methyl)piperidin-1-yl)-1-oxoisoindolin-2-yl)piperidine-2,6-dione] | < 10 | > 85 | < 10 | > 85 | 
10 | O=C1CCC(N2C(=O)c3ccc(OC4CCN(CC5CCN(C(=O)N6CCN7c8cc(-c9ccccc9O)nnc8NC[C@H]7C6)CC5)CC4)cc3C2=O)C(=O)N1 (stereo partly drawn) [Example 145, 2-(2,6-dioxopiperidin-3-yl)-5-((1-((1-((S)-2-(2-hydroxyphenyl)-6,6a,7,8,9,10-hexahydro-5H-pyrazino[1′,2′:4,5]pyrazino[2,3-c]pyridazine-8-carbonyl)piperidin-4-yl)methyl)piperidin-4-yl)oxy)isoindoline-1,3-dione] | 10 to 100 | 75 to 85 | < 10 | 75 to 85 | 
11 | O=C1CCC(N2Cc3ccc(C4CCN(CCN5CCC(N6CCN7c8cc(-c9ccccc9O)nnc8NC[C@H]7C6)CC5)CC4)cc3C2=O)C(=O)N1 (stereo partly drawn) [Example 118, 3-(6-(1-(2-(4-((S)-2-(2-hydroxyphenyl)-5,6,6a,7,9,10-hexahydro-8H-pyrazino[1′,2′:4,5]pyrazino[2,3-c]pyridazin-8-yl)piperidin-1-yl)ethyl)piperidin-4-yl)-1-oxoisoindolin-2-yl)piperidine-2,6-dione] | 10 to 100 | > 85 | < 10 | > 85 | 
12 | O=C1CCC(N2C(=O)c3ccc(N4CC[C@H](CN5CCC(C(=O)N6CCN7c8cc(-c9cc(F)ccc9O)nnc8NC[C@H]7C6)CC5)[C@@H](F)C4)cc3C2=O)C(=O)N1 (stereo partly drawn) [Example 279, 2-(2,6-dioxopiperidin-3-yl)-5-((3R,4R)-3-fluoro-4-((4-((S)-2-(5-fluoro-2-hydroxyphenyl)-6,6a,7,8,9,10-hexahydro-5H-pyrazino[1′,2′:4,5]pyrazino[2,3-c]pyridazine-8-carbonyl)piperidin-1-yl)methyl)piperidin-1-yl)isoindoline-1,3-dione] | < 10 |  | < 10 | > 85 | C (C=50%<Dmax<=75%)
13 | COC1(CN2CCN3c4cc(-c5ccccc5O)nnc4NC[C@H]3C2)CCN(CC2CCN(c3ccc4c(c3)CN(C3CCC(=O)NC3=O)C4=O)CC2)CC1 (stereo partly drawn) [Example 251, 3-(5-(4-((4-(((S)-2-(2-hydroxyphenyl)-5,6,6a,7,9,10-hexahydro-8H-pyrazino[1′,2′:4,5]pyrazino[2,3-c]pyridazin-8-yl)methyl)-4-methoxypiperidin-1-yl)methyl)piperidin-1-yl)-1-oxoisoindolin-2-yl)piperidine-2,6-dione] | < 10 | > 85 | < 10 | > 85 | 
14 | CCC1Nc2nnc(-c3ccccc3O)cc2N2CCN(CC3CCN(CC4CCN(c5ccc6c(c5)C(=O)N(C5CCC(=O)NC5=O)C6=O)CC4)CC3)CC12 (stereo not drawn) [Example 128, 2-(2,6-dioxopiperidin-3-yl)-5-(4-((4-((6-ethyl-2-(2-hydroxyphenyl)-5,6,6a,7,9,10-hexahydro-8H-pyrazino[1′,2′:4,5]pyrazino[2,3-c]pyridazin-8-yl)methyl)piperidin-1-yl)methyl)piperidin-1-yl)isoindoline-1,3-dione] | < 10 | > 85 | < 10 | > 85 | 
15 | O=C1CCC(N2Cc3cc(N4CC(CN5CCC(CN6CCN7c8cc(-c9ccccc9O)nnc8NC[C@H]7C6)CC5)C4)ccc3C2=O)C(=O)N1 (stereo partly drawn) [Example 230, 3-(5-(3-((4-(((S)-2-(2-hydroxyphenyl)-5,6,6a,7,9,10-hexahydro-8H-pyrazino[1′,2′:4,5]pyrazino[2,3-c]pyridazin-8-yl)methyl)piperidin-1-yl)methyl)azetidin-1-yl)-1-oxoisoindolin-2-yl)piperidine-2,6-dione] | < 10 | > 85 | < 10 | > 85 | 
